# Patent US11660291B2, “IL-8 inhibitors for use in the treatment of some sarcomas” (Dompe' Farmaceutici S.P.A., priority 2017, dated 2023)
# Entries after “also recorded” stand apart in the source; their conditions may differ.
# Experiments:
# OS-17 cells = test: Transwell migration and invasion assays, serum as chemoattractant, small molecule inhibitors; type: cell-based, human; conditions: 24 hours
# Method: OS cells were cultured on a transwell chamber membrane, then subjected transferred to a chamber containing RPMI with 2.5% FBS (pos ctl) or RPMI alone (neg ctl). Other wells containing 2.5% FBS in the bottom chamber were treated with 1 uM sc144, 10 nM D[…], or both. After 24 hours, top chambers were scraped clean, membranes stained and cells counted. Transwell migration and invasion assays. 1×10^4 OS cells were plated into transwell inserts (either Falcon #353097 for migration or Corning #354483 for Matrigel invasion assays) containing appropriate chemotactic factors. After 24 hours of incubation, transwells were drained and upper chambers/membrane upper surfaces scraped using a polyester swab. Membranes were stained using a Dif-Quik Stain Set (Siemens #B4132-1A) and dried, then imaged on an inverted microscope. Cells were quantified using Adobe Photoshop counting tools. For experiments involving IL-6 and IL-8 chemotaxis, media contained 1% FBS in both chambers, with recombinant protein added to the bottom chamber to make 50 ng/ml IL6 (BioLegend #570804) or 100 ng/ml IL-8 (BioLegend #574204). For experiments using serum as a chemoattractant, top chambers contained RPMI only, while bottom chambers contained 1% or 2.5% serum. Where noted, 20 ug/ml of neutralizing antibodies to either IL6 (Abcam #AB6672), IL-8 (Abcam #AB18672), or both were added to both upper and lower chambers. […]
# pFAK = test: PD analysis in lung tissue, IHC for pFAK; type: in vivo, mouse
# Method: Mice treated with injections of either DF2156A or sc144 daily were euthanized 24 hours subsequent to their 14th dose of drug. Lungs harvested from those mice were processed using standard FFPE, then sectioned and stained with IHC for either pFAK (downstream of IL-8) or pSTAT3 (downstream of IL-6).
# To evaluate the functional importance of IL-6 and IL-8 pathways to OS lung metastasis, the present inventors used the xenograft models. Balb-SCID mice inoculated via tail vein with 1×10^6 luciferase-labeled OS-17 cells received treatment with sc144 (the gp130 inhibitor), DF2156A (the CXCR1/2 inhibitor), or both. Mice continued to receive treatment for 42 days, after which treatment stopped. Intravital imaging for in vivo assessment of tumor burden was performed at 14 and 24 days using standard bioluminescent techniques. […] Two mice from each single-agent treatment group were euthanized 24 hours after the 14th dose of drug to perform pharmacodynamics (PD) assessment of target inhibition.
structure (smiles),measurement,setting,value
C[C@@H](C(=O)NS(C)(=O)=O)c1ccc(OS(=O)(=O)C(F)(F)F)cc1 [DF2156A],directional migration and invasion,"OS-17 cells; serum (2.5% FBS) as chemoattractant, 1 uM sc144, 10 nM DF2156A (FIG. 2)",suffices to prevent directional migration and invasion
same,amount of migration of OS cells,"OS-17 cells; serum as chemoattractant, transwell",significantly decreased the amount of migration
same,"pFAK IHC staining in lung (target inhibition, downstream of IL-8)",pFAK; 24 hours after the 14th daily dose (dosing trough),sustained target inhibition; also recorded: reduced the amount of activation seen
same,number of infiltrating cells in lung,pFAK; 24 hours after the 14th daily dose (trough concentrations),reduced
